We go through 1 compound from patent US20100166726A1, “COMPOSITIONS FOR IMPROVING CELLULAR UPTAKE OF A CHEMOTHERAPEUTIC AGENT IN A CELL EXHIBITING MUCIN DEREGULATION” (NORTHEASTERN UNIVERSITY, priority 2007, published 2010).

Series [1] concerns Capan-1 cells. Briefly: Cell viability and morphology after removal of benzyl-α-GalNAc. Type of series: cell-based, human. As for the experimental part: (§1) These experiments were conducted to determine whether the successful elimination of the glycosylated functional groups surrounding the MUC1 peptide core limit the capacity of cells to proliferate once benzyl-α-GalNAc has been removed. A significant change in cells' ability to multiply and divide due to exposure to benzyl-α-GalNAc would affect the measure of MUC1's role in our experiment. Capan-1 and HPAF-II cells were exposed to benzyl-α-GalNAc for 48 hr. Percent of cell viability was determined 24 hr, 48 hr, and 72 hr after removal of benzyl-α-GalNAc. […] Following 48 hr exposure to benzyl-α-GalNAc cells were washed with 1×PBS and then allowed to grow for an additional 24 hr, 48 hr, and 72 hr in fresh media.

Series [2] concerns HPAF-II cells. Described as above. The class given is cell-based, human. Here is the method: as §1
In series [3] the test system is U-87 MG cells. The note with it: 72 hr exposure.
Experimental: In order to determine the contribution of MUC1 expression in the delivery of drugs such as 5-FU to pancreatic tumors, the maximum non-toxic concentration of benzyl-α-GalNAc that could be used to inhibit O-glycosylation of MUC1 was determined from cellular toxicity studies. These cellular toxicity studies were performed as follows. Cells were seeded at 1×10^4 per ml in 48-well plates. Following a 24 hr incubation period at 37° C., cells were exposed to various concentrations of benzyl-α-GalNAc solution (Sigma-Aldrich, St. Louis, Mo.) prepared in media. After 72 hr of cell exposure to benzyl-α-GalNAc, the percent of cell viability was determined using sulforhodamine B assay (Kalra et al., Pharm. Res., 23(12):2809-2817 (2006); Skehan et al., J. Natl. Cancer Inst,. 82:1107-1112 (1990)) and calculated as follows:
The test system of series [4] is U-87 MG cells. Briefly: Anti-MUC1 (CD227) antibody association after benzyl-α-GalNAc exposure (FACS). The class given is cell-based, human. The following applies: 48 hr exposure. As for the experimental part:
(§2) Fluorescence-activated cell-sorting (FACS) analysis was then performed as follows. […] After 48 hr exposure to benzyl-α-GalNAc cells were washed with 1×PBS and 1 ml of fresh media was added to each well. The cells were then exposed to 4 μl/well of CD227 antibody. Following 24 hr incubation with the antibody, cells were washed with 1×PBS to remove any unassociated antibody and cells were detached using 0.5 ml/well trypsin. Cells were then washed with 1×PBS and antibody association was determined using FACS analysis.

In series [5] the test system is HPAF-II cells. Briefly: 5-FU cytotoxicity with or without benzyl-α-GalNAc pre-exposure, sulforhodamine B assay. The note with it: 48 hr exposure followed by 5-FU (108 μmol/ml) 24 hr. Type of series: cell-based, human. Here is the method: The effects of increasing benzyl-α-GalNAc concentrations on cytotoxicity of 5-FU (108 μmol/ml) against HPAF-II cells was first tested. […] The growth inhibitory effect of 5-FU after 24 hr of exposure was determined using sulforhodamine B (Sigma-Aldrich, St. Louis, Mo.) assay the percent of viable cells was calculated as follows: […]

The test system of series [6] is Capan-1, HPAF-II, and U-87 MG cells. Briefly: Cell morphology by DIC microscopy after benzyl-α-GalNAc exposure. Type of series: cell-based, human. The note with it: 72 hr exposure at maximum non-toxic concentration. As for the experimental part:
To observe the effects of benzyl-α-GalNAc exposure on cell morphology, differential interference contract (DIC) microscopy was employed. Sterile cover slips were placed in six-well plates (Corning, N.Y.). Capan-1, HPAF-II, and U-87 MG cells were next seeded at 1×10^4 per ml in the same 6-well plates.

The test system of series [7] is Capan-1 tumors. Put plainly: Anti-tumoral activity in Capan-1 pancreatic tumor model (tumor volume, histochemical staining, neoplastic cell density). Type of series: in vivo, SCID mice. As for the experimental part: All animal work was performed in the animal facility at Northeastern University, Boston, Mass. in accordance with the institutional guidelines. Female SCID (severe combined immunodeficient mice), 6 to 8 weeks old purchased from Massachusetts General Hospital, Boston, Mass. were used for our study since they have been used successfully for developing human xenografts of pancreatic tumors. To establish the tumors, 2.5×10^6 Capan-I cells in 0.1 ml of cell culture medium were injected into the subcutaneous dorsa of all mice. Mice were weighed daily using a digital weighing balance (AccuSeries®, Fisher Scientific, Arvada, Colo.) and tumor volumes were also measured every day using an electronic digital caliper (Control Company, Friendswood, Tex.). Tumor volumes were calculated using the formula a^2×b×0.52, where “a” is the longer diameter and “b” is the shorter diameter. Once the tumor volumes were approximately 50 mm^3-70 mm^3 the experimental groups received intratumoral injections of benzyl-α-GalNAc (0.1 ml injection; 10 mg/ml) whereas […] at intervals of 48 hr. When the tumor volumes were approximately 100 mm^3 5-FU was administered via the intravenous route. Animals in treatment groups received two injections (0.1 ml) of 5-FU at interval of 4 days whereas control mice received saline (0.1 ml). The total dose of 5-FU administered was 125 mg/kg. At the end of the experiment animals were sacrificed, tumor tissue was surgically removed and fixed in 10% formalin at 4° C. for histochemical staining.
For histochemical staining, paraffin-embedded tissue sections (5 μm) were stained with hematoxylin and eosin (H&E) to evaluate and compare the extent of tissue viability. The tumor sections were scanned and qualitative images captured using brightfield microscopy (Olympus BX61WI, NY). The number of tumor cells in each section was quantified using bioquant imaging software and expressed as percent of total tumor area. To quantify the total tumor area we first traced the outline of the entire tumor section in each field of view (FOV). The pixels within the traced area were then selected and the pixel count was determined by the software. A total of five FOV were analyzed to determine the total pixel count of the tumor area. Microscope stage encoders were used to ensure that no tumor area was counted more than once. Similarly the total pixel count of the neoplastic cells featured in blue in each FOV was determined. The total percent of neoplastic cell density was calculated as follows: […]
For these studies the pancreatic cell line, Capan-1 was used to used to establish a pancreatic tumor model. Capan-1 tumors were established in subcutaneous dorsa of female SCID mice (see, Example 7). […] 5-FU therapy began when the tumor size was approximately 100 mm^3.

The test system of series [8] is Capan-1 tumors. Put plainly: MUC1 carbohydrate staining of tumors after intratumoral benzyl-α-GalNAc. The class given is in vivo, SCID mice. The following applies: four intratumoral injections (10 mg/ml, 0.1 cc) at intervals of 48 hr. As for the experimental part: (§3) All animal work was performed in the animal facility at Northeastern University, Boston, Mass. in accordance with the institutional guidelines. Female SCID (severe combined immunodeficient mice), 6 to 8 weeks old purchased from Massachusetts General Hospital, Boston, Mass. were used for our study since they have been used successfully for developing human xenografts of pancreatic tumors. To establish the tumors, 2.5×10^6 Capan-I cells in 0.1 ml of cell culture medium were injected into the subcutaneous dorsa of all mice. Mice were weighed daily using a digital weighing balance (AccuSeries®, Fisher Scientific, Arvada, Colo.) and tumor volumes were also measured every day using an electronic digital caliper (Control Company, Friendswood, Tex.). Tumor volumes were calculated using the formula a^2×b×0.52, where “a” is the longer diameter and “b” is the shorter diameter. […]
(§4) In order to test the in vivo effect of Benzyl-α-GalNAc in a pancreatic tumor model, Benzyl-α-GalNAc was administered locally into the tumor mass of mice via intratumoral injections (10 mg/ml, 0.1 cc). […] Following intratumoral injections, the sections of subcutaneous Capan-1 and HPAF-II tumors were analyzed for MUC1 carbohydrate staining (FIG. 7B).

A further series concerns HPAF-II tumors. Described as above. The following applies: four intratumoral injections (10 mg/ml, 0.1 cc) at intervals of 48 hr. Type of series: in vivo, SCID mice. As for the experimental part:
as §3, §4

Series [9] relates to Capan-1 cells. Put plainly: Cellular toxicity of benzyl-α-GalNAc, sulforhodamine B assay. The class given is cell-based, human. The following applies: 72 hr exposure. As for the experimental part:
(§5) O-glycosylation is critical for mucin formation. […] These cellular toxicity studies were performed as follows.

The test system of series [10] is HPAF-II cells. The description is as above. The note with it: 72 hr exposure. The class given is cell-based, human. Here is the method:
as §5

The subject of series [11] is Capan-1 cells. Briefly: Anti-MUC1 (CD227) antibody association after benzyl-α-GalNAc exposure (microplate fluorescence, FACS). Type of series: cell-based, human. Here is the method:
(§6) In order to determine whether the concentrations of benzyl-α-GalNAc employed are sufficient to inhibit MUC1 O-glycosylation, we observed the alterations in anti-MUC1 (CD227) association after exposure to the inhibitor. The antibody association studies were performed as follows. […] After each exposure time point the cells were washed with 1×PBS and 1 ml of fresh media was added to each well. The cells were then exposed to 4 μl/well of anti-MUC1 antibody.
as §2

Series [12] concerns HPAF-II cells. The series is described as above. The class given is cell-based, human. As for the experimental part:
as §6, §2

The mark [13] stands for this setting: 48 hr exposure then fresh media.
Setting [14] is: 24 hr, 48 hr, or 72 hr exposure at maximum non-toxic concentration.

In the case of `CC(=O)N[C@H]1[C@@H](OCc2ccccc2)O[C@H](CO)[C@H](O)[C@@H]1O` [benzyl-α-GalNAc, benzyl-2-acetamido-2-deoxy-α-D-galactopyranoside], the “effect on growth post-removal of inhibitor vs untreated controls” value in the series with Capan-1 cells [1] (0.4 mg/ml for 48 hr, then 24 hr, 48 hr, 72 hr in fresh media) is reported as “No significant effect”; with HPAF-II cells [2] (0.8 mg/ml for 48 hr, then 24 hr, 48 hr, 72 hr in fresh media), “No significant effect”. The “morphology (DIC images) post-removal of inhibitor” value with Capan-1 cells [1] (setting [13]) and in the series on HPAF-II cells [2] (setting [13]) was “no visible morphological changes” throughout. In the series on U-87 MG cells [3], the tolerated concentration is > 0.8 mg/mL. For the same compound, the “FACS analysis of CD227 association vs cells not exposed” value with U-87 MG cells [4] was “no shift in peak”; in the series with Capan-1 cells [11] (48 hr exposure), “shift in fluorescence peaks”; with HPAF-II cells [12] (48 hr exposure) it was “shift in fluorescence peaks”. The “benzyl-α-GalNAc concentration at which decrease of percent cell viability vs 5-FU alone was significant” value in the series with HPAF-II cells [5] is ≥ 0.4 mg/mL. For the same compound, the “morphological structures of cells compared to cells not exposed” value in series [6] was “no visible difference”. Further, in the series with Capan-1 tumors [7] (H&E stained sections), the “histochemical staining of tumor sections, neoplastic cells” value is recorded as “dense packing of neoplastic cells”. The “tumor volume compared to control tumors (saline group)” value in the series with Capan-1 tumors [7] (benzyl-α-GalNAc intratumoral days 4, 6, 8, 10, 5-FU intravenous, total 125 mg/kg) is given as “No difference”. Further, in the series with Capan-1 tumors [7] (bioquant imaging software, tumor sections at end of experiment), the “Percent Tumor Area (neoplastic cell density as percent of total tumor area)” value turned out to be 28.3 ± 1.8%. Moreover, the “staining for MUC1 O-glycosylation vs tumors not exposed” value in the series on Capan-1 tumors [8] and in the series on HPAF-II tumors was “Lower staining” each time. Moreover, the maximum non-toxic concentration worked out at 0.4 mg/mL in the series with Capan-1 cells [9] and 0.8 mg/mL in the series on HPAF-II cells [10]. Besides, the “anti-MUC1 (CD227) antibody association, fluorescence intensity vs cells not exposed” value in the series on Capan-1 cells [11] (setting [14]) and with HPAF-II cells [12] (setting [14]) was “significantly enhanced” each time.
